In patent publication US20200290950A1, “ALKAMIDE COMPOUNDS AND USES THEREOF” (NORTH CAROLINA STATE UNIVERSITY, priority 2017, published 2020):

Key:
RBL-2H3 cells [1] = assay: Histamine release, competitive EIA; assay type: cell-based, rat; details: RBL-2H3 cells treated with A23187, 1 hr
Protocol: FIGS. 1A-1F. A15 inhibits BMMC and RBL-2H3 cell degranulation. The structure of alkamide A15 is shown with different functional groups and carbons in the fatty acid chain labeled (FIG. 1A). BMMCs were plated and stimulated 4 hrs later with 1 μM A23187 and the indicated concentrations of A15 or vehicle only. The percent degranulation was measured after 1 hr (FIG. 1B). RBL-2H3 cells were treated with A23187 and the percent degranulation was determined 1 hr later (FIG. 1C) or every 10 min over a 1 hr time course (FIG. 1D). RBL-2H3 cells were plated and incubated for 4 hrs before the media was aspirated and replaced with media containing 1 μg/mL IgE anti-DNP. Cells were incubated overnight and washed prior to stimulation. The percent degranulation from RBL-2H3 cells was calculated after stimulation with 50 ng/mL DNP-HSA in combination with the indicated concentrations of A15 or vehicle only after 1 hr (FIG. 1E). RBL-2H3 cells were stimulated for 1 hr in Tyrode's buffer before supernatants were collected and levels of histamine were measured using a competitive inhibition EIA kit (FIG. 1F). Data shown are the means±SEM from 3-4 independent experiments (FIG. 1B, FIG. 1C and FIG. 1F) or the means±SEM of triplicate wells from a representative experiment from 3 independent experiments (FIG. 1D and FIG. 1E). […]

RBL-2H3 cells [2] = assay: β-Hexosaminidase release assay (Example 3); assay type: cell-based, rat
Protocol: FIGS. 21A-21D. The inhibition of degranulation is dependent on the length of the alkamide fatty acid chain. RBL-2H3 cells were plated overnight, stimulated with 1 μM A23187 (FIG. 21A) or 5 ng/mL DNP-BSA (FIG. 21B) for 1 h in the absence or presence of each compound. Graphs display the mean percent β-hex release. Data are presented as the mean of 4 experiments. Percent inhibition of degranulation of A23187 (FIG. 21C) or DNP-BSA (FIG. 21D) using data from A and B, respectively. *P<0.05, **P<0.01, ***P<0.001, one-way ANOVA with Dunnett's post hoc test compared to vehicle (A, B) or A15 (C, D).
RBL-2H3 cells (1.0×10^5 cells) were incubated with or without 0.1 μg/mL of IgE-DNP overnight in a 96 well plate at 37° C. with 5% CO2. The cells were washed with Tyrode's buffer and assayed with few modifications (Kuehn, Radinger, & Gilfillan, 2010). Briefly, IgE-DNP sensitized cells were stimulated 1 hour with 5 ng/mL of DNP-BSA in the absence or presence of each compound and incubated at 37° C. with 5% CO2. For experiments using only A23187 as the stimulant, cells were washed with Tyrode's buffer and stimulated 1 hour with 1 μM A23187 in the absence or presence of each compound and incubated at 37° C. with 5% CO2. The stimulated cells were centrifuged at 1200×g for 5 minutes. The supernatant or cell lysate (30 μL) was incubated with 3.4 mg/mL of p-NAG (10 μL) for 1 hour at 37° C. The reaction was terminated by addition of 0.2 M sodium carbonate (pH 10) and the absorbance was read at OD405 nm on a BioTek Synergy HT microplate reader. The total 3-hexosaminidase released from the cell was calculated as the difference between the OD of the supernatant and blank plus the difference between the OD of the lysate and blank. The percent β-hexosaminidase released from the cell was calculated as the difference between the OD of the supernatant and blank divided by the total β-hexosaminidase released from the cell multiplied by 100: ODsupernatant−ODblank/[(ODlysate−ODblank)+(ODsupernatant−ODblank)]*100.

CCCCCCC/C=C/C=C/C(=O)NCC(C)C [A15, (2E,4E)-N-Isobutyldodeca-2,4-dienamide]
release of histamine (RBL-2H3 cells [1]): inhibited the release of the vasoactive amine histamine
percent inhibition of degranulation (RBL-2H3 cells [2]; 5 ng/mL DNP-BSA, 1 hour): 27%
percent inhibition of degranulation (RBL-2H3 cells [2]; 1 μM A23187, 1 hour): 47%
